{
  "source": "patent US20210371413A1",
  "about": "“POLYCYCLIC AMIDES AS CYTOTOXIC AGENTS” (FEMTOGENIX LIMITED, priority 2018, published 2021)",
  "key": {"LIM1215": {"test_system": "LIM1215", "experiment": "In vitro cell-killing, MTT assay, LIM1215", "type": "cell-based", "conditions": "LIM1215, 72 h, read-out: In vitro cell-killing (IC50), Cytotoxicity (72 hours)", "description": "Tumor cell lines were maintained in RPMI1640 medium supplemented with 10% heat-inactivated fetal bovine serum, 2 mM L-glutamine and 1 mM sodium pyruvate. 1800 cells per well were seeded in a volume of 180 μl in a 96-well flat bottom polystyrene plate. The cells were allowed to adhere overnight at 37° C. in a CO2 incubator. Ligands were initially formulated in DMSO, and stocks stored at −80° C. They were then further formulated at lox concentration in RPMI1640 medium. 20 ul of diluted samples were added into each treatment well. On each plate, blank wells with no cells, and untreated wells containing cells, were included. Plates were then cultured at 37° C. in a CO2 incubator for 72 hrs. Cytotoxicity was evaluated using a tetrazolium salt-based assay, the MTT assay. After 72 hours, the supernatant was removed from each well and 200 μl of a sterile filtered 500 μg/ml MTT solution in water added to each well. […] The plate was then read on a plate reader at 540 nm, and percentage cell survival calculated as follows: ((mean absorbance treated wells at concentration x−mean absorbance blank wells)+(mean absorbance untreated wells at concentration x−mean absorbance blank wells))×100. Data were plotted as concentration in nM vs. % cell survival in Microsoft Excel, and IC50 values (concentration where cell survival is reduced by a half) were determined from the graph."}, "DS3 DNA fragment": {"test_system": "DS3 DNA fragment", "experiment": "DNA footprinting, DS3 DNA fragment", "type": "binding", "description": "The DNA sequence selectivity profile of the molecules was investigated using a modification of the previously established DNA footprinting assay. Following an overnight incubation of the ligand-DNA complexes, the mixture was mixed with strand separation buffer containing 10 mM EDTA, 10 mM NaOH, 0.1% bromophenol blue, 80% formamide and incubated at 100° C. for 3 min. The mixture was then immediately cooled on ice and run on an 8% denaturing gel.\nThe preparation of the DS3 DNA fragment (FIG. 5) and the “D” DNA fragment (FIG. 6) has been previously described. Briefly, the sequence which had been cloned into the BamHI site of pUC18 was obtained by cutting with HindIII and EcoRI. Radiolabelled DNA fragments were prepared by filling in the 3′-end of the HindIII site with [α-^32P]dATP using Klenow DNA polymerase (exo-).\nThe radiolabelled DNA fragment was separated from the remainder of the plasmid DNA on a 6% non-denaturing polyacrylamide gel. The gel (20 cm long, 0.3 mm thick) was run at 400 V in 1×TBE running buffer for about 1-2 h, until the bromophenol blue had run most of the way down the gel. The glass plates were separated and the position of the labelled DNA fragment was established by short (1 min) exposure to an X-ray film. The relevant band was then cut from the gel and the radiolabelled DNA eluted by adding 300 μL 10 mM Tris-HCl, pH 7.5 containing 0.1 mM EDTA and gently agitating overnight at room temperature. The eluted DNA was finally precipitated with ethanol and re-suspended in a suitable volume of 10 mM Tris-HCl, pH 7.5 containing 0.1 mM EDTA buffer so as to give at least 10 counts per second/μL on a hand-held Geiger counter. […]\nFootprinting reactions were performed as previously described using the DNA fragments DS3, which contains tracts of AT/GC bases; and using the “D” DNA fragments which represents a random DNA sequence. […] After gel purification, the radiolabelled DNA was dissolved in 10 mM Tris-HCl pH 7.5 containing 0.1 mM EDTA, at a concentration of about 10 c.p.s per μL as determined on a hand held Geiger counter. […]"}},
  "data": [
    {"smiles": "COc1cc2c(cc1OCCCC(=O)Nc1cc(C(=O)Nc3ccc(-c4cc(C(=O)Nc5ccc(N)cc5)n(C)c4)cc3)n(C)c1)NC[C@@H]1CCCCN1C2=O", "note": "[Compound 16, (S)—N-(4-Aminophenyl)-4-(4-(4-(4-((2-methoxy-12-oxo-5,6,6a,7,8,9,10,12-octahydrobenzo[e]pyrido[1,2-a][1,4]diazepin-3-yl)oxy)butanamido)-1-methyl-1H-pyrrole-2-carboxamido)phenyl)-1-methyl-1H-pyrrole-2-carboxamide]", "values": [
      {"measurement": "IC50", "setting": "LIM1215", "result": 72, "unit": "nM"},
      {"measurement": "DNA binding pattern (footprint)", "setting": "DS3 DNA fragment; DS3 DNA sequence", "result": "predominantly target AT rich regions"},
      {"measurement": "DNA-binding site sequence (X any base, W A or T)", "setting": "DS3 DNA fragment; from DNA footprinting, fragment not stated", "result": "XXXXWWW"}
    ]}
  ]
}
